Laboratory results reported in patent publication US20260263459A1, “PHTHALAZINONE GSPT1 PROTEIN DEGRADING AGENT AND USE THEREOF” (CHINA PHARMACEUTICAL UNIVERSITY, priority 2023, published 2026).

What was measured:
[1] = molecular target: T1, GSPT1 protein (Homo sapiens, UniProt P15170+Q96SW2); assay: Degradation of GSPT1 in KG-1 cells (Western blot); format: cell-based; details: compound concentration 200 nM, 4 h incubation
T1 construct: Whole cell lysates were prepared; endogenous in cells; host or cells: KG-1 cells
Method: KG-1 cells were grown in an IMDM culture medium (containing 20% FBS). After centrifugation and counting, the cell concentration was adjusted. The cells were plated onto 6-well plates at 10^6 cells/well, with 1350 μL per well. 150 μL of DMSO and the test compounds of the present disclosure (compound concentration: 200 nM) were added. The plates were incubated in an incubator at 37° C. with 5% CO2 for 4 h. The cells were centrifuged, and the culture medium was discarded. PBS was added to wash the cells and then discarded. Whole cell lysates were prepared using a protease inhibitor cocktail (100×, Fude Biological), a protein phosphatase inhibitor cocktail (100×, Fude Biological), Super Nuclease (Beyotime), and a high-intensity RIPA lysis buffer (Thermo Fisher) and placed on ice for 30 min. After centrifugation, the cell debris precipitates were discarded, and the whole cell lysate supernatants were collected and transferred to new centrifuge tubes. After a BCA protein assay, samples were prepared using a 5× loading buffer (Thermo Fisher). The samples were subjected to protein electrophoresis separation in a 4-20% precast gel (SDS-PAGE gel), transferred to a PVDF membrane, blocked with 5% NFDM/TBST at room temperature for 1 h, incubated overnight with primary antibodies at 4° C., and incubated with a secondary antibody at room temperature for 2 h the next day. Signals were detected using a MINICHEMITM imaging system.
• Anti-GSPT1: Abcam ab234433 • Anti-beta actin: Fude Biological FD0060
• Anti-rabbit peroxidase-linked secondary antibody: Fude Biological FDG007
The degradation effects of the compounds on GSPT1 protein are shown in Table 1, where A represents a GSPT1 protein degradation percentage of no less than 70%, B represents a degradation percentage of less than 70% but no less than 30%, and C represents a degradation percentage of less than 30%.

[2] = tested on: KG-1 cells; assay: Antiproliferative activity against KG-1 cells (CCK8); format: cell-based; details: Homo sapiens, 72 h incubation, CCK8 method
Method: KG-1 cells in the logarithmic growth phase were diluted in a culture medium (RPMI+10% FBS) and plated onto 96-well plates at 5000 cells/well, and the plates were incubated in an incubator at 37° C. with 5% CO2 for 24 h. 10 mM stock solutions of the test compounds of the present disclosure in DMSO were prepared and diluted with the culture medium to set 9 concentration gradients. 3 replicate wells were set for each concentration. After compound addition, the plates were incubated in an incubator at 37° C. with 5% CO2 for 72 h. The cell proliferation was assessed using the CCK8 method. The cell growth inhibition IC50 values of the compounds were determined using an enzyme labeling method. The IC50 values were calculated using GraphPad Prism 7 software.
The antiproliferative activity of the compounds against KG-1 cells is shown in Table 2, where A represents IC50≤30 nM, B represents 30<IC50≤300 nM, and C represents IC50>300 nM.

T1 sequence (P15170 whole entry): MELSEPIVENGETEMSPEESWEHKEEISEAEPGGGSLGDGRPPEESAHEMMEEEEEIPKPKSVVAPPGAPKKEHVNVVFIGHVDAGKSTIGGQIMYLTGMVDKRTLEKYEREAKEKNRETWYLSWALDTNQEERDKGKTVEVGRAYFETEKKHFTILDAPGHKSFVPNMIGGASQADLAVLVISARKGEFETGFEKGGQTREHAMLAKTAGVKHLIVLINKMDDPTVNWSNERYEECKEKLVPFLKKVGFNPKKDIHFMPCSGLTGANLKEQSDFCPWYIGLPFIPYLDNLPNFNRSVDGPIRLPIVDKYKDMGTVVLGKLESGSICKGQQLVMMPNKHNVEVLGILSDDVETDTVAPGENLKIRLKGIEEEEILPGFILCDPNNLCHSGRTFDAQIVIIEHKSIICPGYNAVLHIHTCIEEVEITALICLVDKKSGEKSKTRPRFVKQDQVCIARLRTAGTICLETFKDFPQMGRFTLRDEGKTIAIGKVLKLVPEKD
T1 sequence (Q96SW2 whole entry): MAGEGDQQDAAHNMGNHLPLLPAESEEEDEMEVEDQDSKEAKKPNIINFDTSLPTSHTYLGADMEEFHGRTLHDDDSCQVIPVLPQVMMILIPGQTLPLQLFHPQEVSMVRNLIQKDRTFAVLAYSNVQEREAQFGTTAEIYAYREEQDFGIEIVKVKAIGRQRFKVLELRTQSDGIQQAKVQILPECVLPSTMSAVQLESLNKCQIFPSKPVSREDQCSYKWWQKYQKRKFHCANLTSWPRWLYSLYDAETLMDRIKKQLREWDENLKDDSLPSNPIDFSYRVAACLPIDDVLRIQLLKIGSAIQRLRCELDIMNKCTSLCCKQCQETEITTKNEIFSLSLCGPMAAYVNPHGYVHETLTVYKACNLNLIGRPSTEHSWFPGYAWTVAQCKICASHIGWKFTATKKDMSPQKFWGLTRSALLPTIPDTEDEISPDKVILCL
T1 sequence (Q16531 whole entry partner): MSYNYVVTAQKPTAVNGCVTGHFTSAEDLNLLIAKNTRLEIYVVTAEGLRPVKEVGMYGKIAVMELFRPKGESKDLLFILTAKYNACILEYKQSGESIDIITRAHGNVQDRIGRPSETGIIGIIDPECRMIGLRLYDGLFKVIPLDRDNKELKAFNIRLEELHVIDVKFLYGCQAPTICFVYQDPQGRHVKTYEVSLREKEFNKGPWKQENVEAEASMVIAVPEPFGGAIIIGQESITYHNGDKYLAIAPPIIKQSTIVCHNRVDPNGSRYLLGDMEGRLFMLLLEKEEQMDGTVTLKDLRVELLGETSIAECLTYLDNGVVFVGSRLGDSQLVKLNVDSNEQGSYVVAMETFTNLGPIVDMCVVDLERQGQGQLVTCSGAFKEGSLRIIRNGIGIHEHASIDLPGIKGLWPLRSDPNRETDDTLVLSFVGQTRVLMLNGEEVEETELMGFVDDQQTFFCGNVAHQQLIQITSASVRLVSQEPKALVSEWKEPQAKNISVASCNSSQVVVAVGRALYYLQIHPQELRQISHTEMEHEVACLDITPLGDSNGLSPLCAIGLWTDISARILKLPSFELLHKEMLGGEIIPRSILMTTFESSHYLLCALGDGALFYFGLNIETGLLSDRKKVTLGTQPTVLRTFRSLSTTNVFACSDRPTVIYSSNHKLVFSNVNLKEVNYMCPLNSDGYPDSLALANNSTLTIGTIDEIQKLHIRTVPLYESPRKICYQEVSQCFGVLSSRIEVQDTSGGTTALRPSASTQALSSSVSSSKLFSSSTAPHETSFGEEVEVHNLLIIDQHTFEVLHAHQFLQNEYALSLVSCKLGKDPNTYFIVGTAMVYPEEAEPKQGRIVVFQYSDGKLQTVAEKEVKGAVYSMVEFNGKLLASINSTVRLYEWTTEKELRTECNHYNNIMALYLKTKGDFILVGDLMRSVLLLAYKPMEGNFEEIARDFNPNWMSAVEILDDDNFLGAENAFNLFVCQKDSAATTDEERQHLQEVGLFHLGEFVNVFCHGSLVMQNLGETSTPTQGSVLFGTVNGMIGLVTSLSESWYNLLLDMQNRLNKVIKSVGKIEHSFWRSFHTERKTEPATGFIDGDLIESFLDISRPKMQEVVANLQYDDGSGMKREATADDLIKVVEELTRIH

inhibition at 0.2 µM [1]	SMILES	IC50 [2]
< 30%	C=Cc1ccc2c(c1)C=C(C(=O)NCc1ccc3c(=O)n(C4CCC(=O)NC4=O)ncc3c1)CO2 (stereo not drawn) [Compound T-16, N-((2-(2,6-Dioxopiperidin-3-yl)-1-oxo-1,2-dihydrophthalazin-6-yl)methyl)-6-vinyl-2H-chromene-3-carboxamide]	> 300 nM
≥ 70%	COc1cccc2c1C=C(C(=O)NCc1ccc3c(=O)n(C4CCC(=O)NC4=O)ncc3c1)CO2 (stereo not drawn) [Compound T-7, N-((2-(2,6-Dioxopiperidin-3-yl)-1-oxo-1,2-dihydrophthalazin-6-yl)methyl)-5-methoxy-2H-chromene-3-carboxamide]	≤ 30 nM
< 30%	O=C1CCC(n2ncc3cc(NC(=O)C4=Cc5cc(F)ccc5OC4)ccc3c2=O)C(=O)N1 (stereo not drawn) [Compound T-26, N-(2-(2,6-Dioxopiperidin-3-yl)-1-oxo-1,2-dihydrophthalazin-6-yl)-6-fluoro-2H-chromene-3-carboxamide]	30 to 300 nM
30 to 70%	O=C1CCC(n2ncc3cc(NC(=O)C4=Cc5cccc(OC(F)(F)F)c5OC4)ccc3c2=O)C(=O)N1 (stereo not drawn) [Compound T-28, N-(2-(2,6-Dioxopiperidin-3-yl)-1-oxo-1,2-dihydrophthalazin-6-yl)-8-(trifluoromethoxy)-2H-chromene-3-carboxamide]	30 to 300 nM
30 to 70%	Cc1cc2c(cc1Cl)C=C(C(=O)NCc1ccc3c(=O)n(C4CCC(=O)NC4=O)ncc3c1)CO2 (stereo not drawn) [Compound T-20, 6-Chloro-N-((2-(2,6-dioxopiperidin-3-yl)-1-oxo-1,2-dihydrophthalazin-6-yl)methyl)-7-methyl-2H-chromene-3-carboxamide]	30 to 300 nM
≥ 70%	O=C1CCC(n2ncc3cc(CNC(=O)C4COc5ccc(OC(F)(F)F)cc5C4)ccc3c2=O)C(=O)N1 (stereo not drawn) [Compound T-23, N-((2-(2,6-Dioxopiperidin-3-yl)-1-oxo-1,2-dihydrophthalazin-6-yl)methyl)-6-(trifluoromethoxy) chromane-3-carboxamide]	≤ 30 nM
30 to 70%	Cc1ccc2c(c1)C=C(C(=O)NCc1ccc3c(=O)n(C4CCC(=O)NC4=O)ncc3c1)CO2 (stereo not drawn) [Compound T-12, N-((2-(2,6-Dioxopiperidin-3-yl)-1-oxo-1,2-dihydrophthalazin-6-yl)methyl)-6-methyl-2H-chromene-3-carboxamide]	30 to 300 nM
30 to 70%	O=C1CCC(n2ncc3cc(CNC(=O)C4=Cc5ccc(F)cc5OC4)ccc3c2=O)C(=O)N1 (stereo not drawn) [Compound T-4, N-((2-(2,6-Dioxopiperidin-3-yl)-1-oxo-1,2-dihydrophthalazin-6-yl)methyl)-7-fluoro-2H-chromene-3-carboxamide]	30 to 300 nM
30 to 70%	O=C1CCC(n2ncc3cc(CNC(=O)C4=Cc5cc(F)cc(F)c5OC4)ccc3c2=O)C(=O)N1 (stereo not drawn) [Compound T-19, N-((2-(2,6-Dioxopiperidin-3-yl)-1-oxo-1,2-dihydrophthalazin-6-yl)methyl)-6,8-difluoro-2H-chromene-3-carboxamide]	30 to 300 nM
30 to 70%	Cc1cccc2c1OCC(C(=O)NCc1ccc3c(=O)n(C4CCC(=O)NC4=O)ncc3c1)=C2 (stereo not drawn) [Compound T-11, N-((2-(2,6-Dioxopiperidin-3-yl)-1-oxo-1,2-dihydrophthalazin-6-yl)methyl)-8-methyl-2H-chromene-3-carboxamide]	30 to 300 nM
≥ 70%	O=C1CCC(n2ncc3cc(CNC(=O)C4=Cc5cc(OC(F)(F)F)ccc5OC4)ccc3c2=O)C(=O)N1 (stereo not drawn) [Compound T-10, N-((2-(2,6-Dioxopiperidin-3-yl)-1-oxo-1,2-dihydrophthalazin-6-yl)methyl)-6-(trifluoromethoxy)-2H-chromene-3-carboxamide]	≤ 30 nM
≥ 70%	CC(C)(C)c1ccc2c(c1)C=C(C(=O)NCc1ccc3c(=O)n(C4CCC(=O)NC4=O)ncc3c1)CO2 (stereo not drawn) [Compound T-17, 6-(tert-Butyl)-N-((2-(2,6-dioxopiperidin-3-yl)-1-oxo-1,2-dihydrophthalazin-6-yl)methyl)-2H-chromene-3-carboxamide]	≤ 30 nM
30 to 70%	O=C1CCC(n2ncc3cc(CNC(=O)C4=Cc5cc(Br)ccc5OC4)ccc3c2=O)C(=O)N1 (stereo not drawn) [Compound T-14, 6-Bromo-N-((2-(2,6-dioxopiperidin-3-yl)-1-oxo-1,2-dihydrophthalazin-6-yl)methyl)-2H-chromene-3-carboxamide]	30 to 300 nM
≥ 70%	O=C1CCC(n2ncc3cc(CNC(=O)C4=Cc5c(F)cccc5OC4)ccc3c2=O)C(=O)N1 (stereo not drawn) [Compound T-2, N-((2-(2,6-Dioxopiperidin-3-yl)-1-oxo-1,2-dihydrophthalazin-6-yl)methyl)-5-fluoro-2H-chromene-3-carboxamide]	≤ 30 nM
< 30%	O=C1CCC(n2ncc3cc(NC(=O)C4=Cc5cc(OC(F)(F)F)ccc5OC4)ccc3c2=O)C(=O)N1 (stereo not drawn) [Compound T-27, N-(2-(2,6-Dioxopiperidin-3-yl)-1-oxo-1,2-dihydrophthalazin-6-yl)-6-(trifluoromethoxy)-2H-chromene-3-carboxamide]	30 to 300 nM
30 to 70%	O=C1CCC(n2ncc3cc(CNC(=O)C4=Cc5ccccc5OC4)ccc3c2=O)C(=O)N1 (stereo not drawn) [Compound T-1, N-((2-(2,6-Dioxopiperidin-3-yl)-1-oxo-1,2-dihydrophthalazin-6-yl)methyl)-2H-chromene-3-carboxamide]	30 to 300 nM
≥ 70%	O=C1CCC(n2ncc3cc(CNC(=O)C4CNc5ccccc5C4)ccc3c2=O)C(=O)N1 (stereo not drawn) [Compound T-24, N-((2-(2,6-Dioxopiperidin-3-yl)-1-oxo-1,2-dihydrophthalazin-6-yl)methyl)-1,2,3,4-tetrahydroquinoline-3-carboxamide]	30 to 300 nM
30 to 70%	O=C1CCC(n2ncc3cc(CNC(=O)C4=Cc5cccc(OC(F)(F)F)c5OC4)ccc3c2=O)C(=O)N1 (stereo not drawn) [Compound T-9, N-((2-(2,6-Dioxopiperidin-3-yl)-1-oxo-1,2-dihydrophthalazin-6-yl)methyl)-8-(trifluoromethoxy)-2H-chromene-3-carboxamide]	≤ 30 nM
≥ 70%	O=C1CCC(n2ncc3cc(CNC(=O)C4=Cc5c(cccc5C(F)(F)F)OC4)ccc3c2=O)C(=O)N1 (stereo not drawn) [Compound T-15, N-((2-(2,6-Dioxopiperidin-3-yl)-1-oxo-1,2-dihydrophthalazin-6-yl)methyl)-5-(trifluoromethyl)-2H-chromene-3-carboxamide]	≤ 30 nM
≥ 70%	O=C1CCC(n2ncc3cc(CNC(=O)C4=Cc5cc(-c6ccccc6)ccc5OC4)ccc3c2=O)C(=O)N1 (stereo not drawn) [Compound T-18, N-((2-(2,6-Dioxopiperidin-3-yl)-1-oxo-1,2-dihydrophthalazin-6-yl)methyl)-6-phenyl-2H-chromene-3-carboxamide]	≤ 30 nM
30 to 70%	O=C1CCC(n2ncc3cc(CNC(=O)C4COc5ccccc5C4)ccc3c2=O)C(=O)N1 (stereo not drawn) [Compound T-21, N-((2-(2,6-Dioxopiperidin-3-yl)-1-oxo-1,2-dihydrophthalazin-6-yl)methyl) chromane-3-carboxamide]	30 to 300 nM
